Data reported in PMC6100385, “Irinotecan and Δ^9-Tetrahydrocannabinol Interactions in Rat Liver: A Preliminary Evaluation Using Biochemical and Genotoxicity Markers” (Molecules : A Journal of Synthetic Chemistry and Natural …, 2018).

Assays:
[1] = cited from earlier work
male Wistar rats [2] = experiment: Survival and clinical signs of intoxication; format: in vivo, rat; settings: IRI 100 mg/kg b.w. i.p. once; own observations same as literature
Protocol: A total of 60 rats were randomly assigned to the following four groups. Group 1: control rats were given the same daily volume of the vehicle sesame oil as the THC-treated group. […] Group 3: rats orally administered THC dissolved in sesame oil at a daily dose of 7 mg/kg b.w. for one, three and seven days, respectively. […] Each group comprised 5 animals with minimal weight variation (300 g ± 10%).
Rats had free access to food and drinking water. Their body weights were regularly monitored and the doses of THC were adjusted accordingly. Survival and clinical signs of intoxication were also evaluated on a daily basis.

liver of rats [3] = experiment: Lipid peroxidation (TBARS) in the liver; format: in vivo, rat
Protocol: The concentration of thiobarbituric reactive substances (TBARS), as a measure of lipid peroxidation, was determined using a modification of the method by Drury et al.. Butylated hydroxytoluene (BHT; 5 µL; 0.2% w/v) and phosphoric acid (750 µL; 1% v/v) were added to 50 µL samples. After mixing, 250 µL 0.6% (w/w) thiobarbituric acid (TBA) and 445 µL H2O were added and the reaction mixture was incubated in a water bath at 90 °C for 30 min. The mixture was cooled and absorbance was measured at 532 nm on a Shimadzu UV Probe Spectrophotometer (Kyoto, Japan). The concentration of TBARS was calculated using standard curves of increasing 1,1,3,3-tetramethoxypropane concentrations, and expressed as µmol/L.

liver of rats [4] = experiment: Superoxide dismutase (SOD) activity in the liver; format: in vivo, rat; settings: after 3 days
Protocol: Total superoxide dismutase (SOD) activity was measured spectrophotometrically according to Flohé and Ötting. The reduction rate of cytochrome c by superoxide radicals was monitored at 550 nm utilizing the xanthine–xanthine oxidase system as the source for O2^•−. SOD competed for the superoxide and decreased the reduction rate of cytochrome c. One unit of SOD was defined as the amount of enzyme that inhibits the rate of cytochrome c reduction by 50%. Enzyme activity was expressed as IU/gprotein.
(§1) Determination of protein concentration was carried out according to the method by Bradford using bovine serum albumin as standard.

[5] = test system: hepatocytes of male Wistar rats; experiment: Alkaline comet assay, primary DNA damage; format: in vivo, rat
Protocol: The obtained cellular suspension was immediately used for preparation of agarose microgels.
To prepare agarose microgels, we used fully frosted precleaned microscope slides (Surgipath®, Cambridgeshire, UK) precoated with 0.6% normal melting point (NMP) agarose. Suspensions of liver cells (V = 10 µL per slide) were mixed with 0.5% low melting point (LMP) agarose, placed on slides and covered with a top layer of 0.5% LMP agarose. The microgels were lysed overnight at 4 °C in a freshly prepared buffer (2.5 mol/L NaCl (Kemika, Zagreb, Croatia), 100 mmol/L Na2EDTA, 10 mmol/L Tris-HCl, 1% Na-laurylsarcosinate, pH = 10) with 1% Triton X-100 and 10% dimethyl sulfoxide (Kemika, Zagreb, Croatia). After lysis, microgels were denatured (20 min) in alkaline denaturation/electrophoresis buffer (300 mM NaOH (Kemika, Zagreb, Croatia) and 1 mM Na2EDTA, pH > 13). Electrophoresis lasted for 20 min, at 4 °C, 25 V, and 300 mA. The microgels were then neutralised using a Tris-HCl buffer (0.4 mol/L; pH = 7.5). Before microscopic analysis, the slides were stained with ethidium bromide (20 µg/mL). They were analysed using an epifluorescence microscope (Olympus BX50, Tokyo, Japan) equipped with appropriate filters, at 200× magnification. The level of DNA damage in individual cells was estimated using Comet Assay IV™ software (Instem-Perceptive Instruments Ltd., Suffolk, Halstead, UK). One well-trained scorer performed all of the comet measurements on the coded/blinded slides. Random fields were selected and the comets were captured at a constant depth of the gel, avoiding edges and occasional dead cells. A total of 200 comets per rat were measured on replicate slides in two independent evaluations (altogether 1000 individual comet measurements per each experimental group were performed). Tail length (presented in micrometres) and tail intensity (i.e., DNA% in tail) were chosen as indicators of DNA damage.

rats = settings: cited from earlier work
humans = test system: humans; parameters: method as in PMID 11489791; settings: cited from earlier work
CDF1 mice = test system: CDF1 mice; parameters: method as in PMID 9247609; settings: i.p. at 100 mg/kg for six days; cited from earlier work
liver cells of rats = test system: liver cells of rats; parameters: method as in PMID 19663821; settings: 24 h and 72 h; eleven-fold lower IRI dose than tested here; cited from earlier work
male Wistar rats [6] = experiment: Serum alanine aminotransferase (ALT) activity; format: in vivo, rat
Protocol: (§2) Serum biochemical parameters included AST, ALT, bilirubin, ALP, and total protein. These were determined using a chemical analyser (Beckman Coulter AU 480; Brea, CA, USA). Activities of AST, ALT, and ALP were expressed as U/L. The amount of total protein was expressed as g/L. Bilirubin concentration (total bilirubin) was expressed as µmol/L.

male Wistar rats [7] = experiment: Serum bilirubin (total bilirubin); format: in vivo, rat; settings: seven days of continuous intake
Protocol: as §2

male Wistar rats [8] = experiment: Serum markers of liver function, overall; format: in vivo, rat; settings: 1-, 3-, 7-day treatments
Protocol: as §2

liver of rats [9] = experiment: Catalase (CAT) activity in the liver; format: in vivo, rat; settings: one day after application, single dose
Protocol: Catalase activity was measured at 25 °C, pH 7.0, at 240 nm. Enzyme activity was calculated using the molar extinction coefficient ([…]), and expressed as IU/gprotein.
as §1

male Wistar rats [10] = settings: THC 7 mg/kg b.w. p.o.; all three timepoints
Protocol: as §2

male Wistar rats [11] = settings: THC p.o.; days 1 and 3
Protocol: as §2

Sprague-Dawley rats = settings: 3 mg/kg b.w. i.p. for seven days; cited from earlier work
[12] = low doses (<5 µg/mL or <5 µmol/L, or <1 joint/day); cited from earlier work

**Q.** Which cytotoxic potential [1] does the source give for `CCc1c2c(nc3ccc(OC(=O)N4CCC(NCCCCC(=O)O)CC4)cc13)-c1cc3c(c(=O)n1C2)COC(=O)C3(O)CC` (stereo not drawn) [APC, 7-ethyl-10-[4-N-(5-aminopentanoic acid)-1-piperidino]carbonyloxycamptothecin] here?
**A.** The cytotoxic potential was “significantly lower cytotoxic potential”.

**Q.** Which “severe diarrhoea and gastrointestinal toxicity” value (male Wistar rats [2]) does the source give for `CCc1c2c(nc3ccc(OC(=O)N4CCC(N5CCCCC5)CC4)cc13)-c1cc3c(c(=O)n1C2)COC(=O)[C@]3(O)CC` [IRI, 7-ethyl-10-[4-(1-piperidino)-1-piperidino] carbonyloxycamptothecin] here?
**A.** Its value is “did not result with severe diarrhoea and gastrointestinal toxicity”.

**Q.** And the “TBARS concentration in liver, IRI-treated vs control” value (liver of rats [3]; 3- and 7-day timepoints)?
**A.** Its value is “not significant”.

**Q.** What about the “TBARS concentration in liver (lipid peroxidation), rank among groups” value (liver of rats [3]; one day following application) of the same compound?
**A.** The value was “highest level of lipid peroxidation”.

**Q.** What about the “SOD activity in liver vs control” value (liver of rats [4]) of the same compound?
**A.** Its value is “significantly higher”.

**Q.** What about the “comet tail intensity, mean, vs control and THC groups” value ([5]; 1-day treatment) of the same compound?
**A.** Its value is “significantly increased”.

**Q.** What about the “comet tail length, mean, vs control and THC groups” value ([5]; 1-day treatment) of the same compound?
**A.** The value was “significantly increased”.

**Q.** And the “comet tail intensity, mean, vs control and THC groups” value ([5]; 3-day treatment)?
**A.** The value was “significantly increased”.

**Q.** What about the “comet tail length, mean, vs control and THC groups” value ([5]; 3-day treatment) of the same compound?
**A.** Its value is “significantly increased”.

**Q.** And the “comet tail intensity, mean, rank among groups” value ([5]; 7-day treatment)?
**A.** The value was “highest mean value”.

**Q.** And the “DNA damage, rank among groups” value ([5]; all timepoints)?
**A.** Its value is “highest DNA damage”.

**Q.** What about the “primary DNA damage, 1-day vs 3 days” value ([5]; single IRI) of the same compound?
**A.** The value was “lower than after 3 days”.

**Q.** What about the “level of DNA damage with prolonged treatment duration” value ([5]; single IRI, seven days) of the same compound?
**A.** Its value is “slightly diminished”.

**Q.** And the “maximum tolerated dose for rats” value (rats; per week)?
**A.** The value was 100 mg/kg b.w.

**Q.** What about the “mortality and gastrointestinal mucositis” value (rats; single dose of 200 mg/kg) of the same compound?
**A.** The value was “low mortality, but caused reproducible gastrointestinal mucositis”.

**Q.** What about the “maximal and recommended tolerated human doses” value (humans) of the same compound?
**A.** The value was 10–30 mg/m^2/day.

**Q.** And the “lipid peroxidation in the liver” value (CDF1 mice)?
**A.** Its value is “increases of IRI-potentiated lipid peroxidation”.

**Q.** What about the “primary DNA damage in liver cells” value (liver cells of rats) of the same compound?
**A.** The value was “significant increase”.

**Q.** With `CCc1c2c(nc3ccc(OC(=O)N4CCC(N)CC4)cc13)-c1cc3c(c(=O)n1C2)COC(=O)[C@]3(O)CC` [NPC, 7-ethyl-10-[4-(1-piperidino)-1-amino]-carbonyloxycamptothecin] as the compound, how does the cytotoxic potential [1] read?
**A.** Its cytotoxic potential is “significantly lower cytotoxic potential”.

**Q.** Which “cytotoxicity relative to the parent compound (IRI)” value [1] does the source give for `CCc1c2c(nc3ccc(O)cc13)-c1cc3c(c(=O)n1C2)COC(=O)[C@]3(O)CC` [SN-38] here?
**A.** The value was 100–1000 fold.

**Q.** Which “ALT activity in serum vs IRI-treated rats” value (male Wistar rats [6]; 3-day exposure) does the source give for `CCCCCc1cc(O)c2c(c1)OC(C)(C)C1CCC(C)=CC21` (stereo not drawn) [THC, Δ^9-tetrahydrocannabinol] here?
**A.** Its value is “statistically significant increase”.

**Q.** And the “ALT level in serum” value (male Wistar rats [6]; THC p.o., day 3)?
**A.** The value was “somewhat increased”.

**Q.** And the “serum bilirubin level vs single IRI and combined treatment” value (male Wistar rats [7])?
**A.** The value was “higher”.

**Q.** What about the “liver function / serum liver markers, overall” value (male Wistar rats [8]) of the same compound?
**A.** Its value is “affected ALP and AP levels more than single IRI”.

**Q.** And the “CAT activity in liver vs control and IRI-treated rats” value (liver of rats [9])?
**A.** The value was “significantly increased”.

**Q.** And the “comet tail length, mean” value ([5]; continuous 7-day oral exposure, compared to shorter treatments)?
**A.** The value was “significantly higher mean value of tail length”.

**Q.** What about the risk for genotoxicity ([5]; shorter exposures (1-, 3-day) to THC p.o.) of the same compound?
**A.** The risk for genotoxicity was “not associated with a significant risk for genotoxicity”.

**Q.** And the “AST activity in serum, trend” value (male Wistar rats [10])?
**A.** The value was “trend towards increased AST activity”.

**Q.** What about the “ALP level in serum” value (male Wistar rats [11]) of the same compound?
**A.** Its value is “increased”.

**Q.** What about the “lipid peroxidation in the liver” value (Sprague-Dawley rats) of the same compound?
**A.** Its value is “slightly elevated”.

**Q.** And the “liver CAT activity vs control rats” value (Sprague-Dawley rats)?
**A.** Its value is “decreased”.

**Q.** And the “liver SOD activity vs control rats” value (Sprague-Dawley rats)?
**A.** The value was “non-significant decrease”.

**Q.** And the genotoxic adverse outcomes [12]?
**A.** The genotoxic adverse outcomes was “usually not associated with genotoxic adverse outcomes”.
